Assay results reported in patent US11029303B2, “PAH antibodies and uses thereof” (The Administrators of the Tulane Educational Fund, priority 2015, dated 2021).

Assays:
[1] = target: T1, human aryl hydrocarbon receptor (AhR) (Homo sapiens, UniProt P35869); assay: Yeast bioassay of human AhR activation (YCM3 yeast, LacZ reporter); format: cell-based; conditions: for EC50: concentration inducing 50% of the activity of 100 μM phenanthrene, 18 hr, read-out: rEC50
T1 construct: host or cells: Saccharomyces cerevisiae strain YCM3 (derived from W303a), AhR and ARNT integrated on chromosome III under a galactose promoter
T1 sequence (P35869 11-848): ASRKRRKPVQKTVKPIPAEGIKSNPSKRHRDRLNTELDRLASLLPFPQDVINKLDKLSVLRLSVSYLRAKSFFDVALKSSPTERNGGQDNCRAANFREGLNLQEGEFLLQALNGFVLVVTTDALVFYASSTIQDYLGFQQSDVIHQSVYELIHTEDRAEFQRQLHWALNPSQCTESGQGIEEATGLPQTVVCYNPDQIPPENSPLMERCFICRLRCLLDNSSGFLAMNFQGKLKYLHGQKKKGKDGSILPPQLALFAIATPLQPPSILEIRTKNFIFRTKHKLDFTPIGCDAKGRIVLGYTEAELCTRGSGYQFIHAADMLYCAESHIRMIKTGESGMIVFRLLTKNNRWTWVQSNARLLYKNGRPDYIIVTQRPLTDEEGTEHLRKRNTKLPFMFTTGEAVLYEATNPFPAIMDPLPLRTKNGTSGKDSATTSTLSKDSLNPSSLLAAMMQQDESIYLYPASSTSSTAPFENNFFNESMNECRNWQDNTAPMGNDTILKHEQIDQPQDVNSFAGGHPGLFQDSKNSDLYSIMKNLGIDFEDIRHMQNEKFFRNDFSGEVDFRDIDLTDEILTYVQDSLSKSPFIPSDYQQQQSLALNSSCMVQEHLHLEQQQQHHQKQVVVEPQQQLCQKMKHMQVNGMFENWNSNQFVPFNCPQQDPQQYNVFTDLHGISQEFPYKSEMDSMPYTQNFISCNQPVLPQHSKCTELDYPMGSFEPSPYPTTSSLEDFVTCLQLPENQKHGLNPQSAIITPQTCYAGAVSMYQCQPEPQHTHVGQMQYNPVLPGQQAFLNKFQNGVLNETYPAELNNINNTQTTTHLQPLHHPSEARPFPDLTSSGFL
T1 sequence (P27540 whole entry partner): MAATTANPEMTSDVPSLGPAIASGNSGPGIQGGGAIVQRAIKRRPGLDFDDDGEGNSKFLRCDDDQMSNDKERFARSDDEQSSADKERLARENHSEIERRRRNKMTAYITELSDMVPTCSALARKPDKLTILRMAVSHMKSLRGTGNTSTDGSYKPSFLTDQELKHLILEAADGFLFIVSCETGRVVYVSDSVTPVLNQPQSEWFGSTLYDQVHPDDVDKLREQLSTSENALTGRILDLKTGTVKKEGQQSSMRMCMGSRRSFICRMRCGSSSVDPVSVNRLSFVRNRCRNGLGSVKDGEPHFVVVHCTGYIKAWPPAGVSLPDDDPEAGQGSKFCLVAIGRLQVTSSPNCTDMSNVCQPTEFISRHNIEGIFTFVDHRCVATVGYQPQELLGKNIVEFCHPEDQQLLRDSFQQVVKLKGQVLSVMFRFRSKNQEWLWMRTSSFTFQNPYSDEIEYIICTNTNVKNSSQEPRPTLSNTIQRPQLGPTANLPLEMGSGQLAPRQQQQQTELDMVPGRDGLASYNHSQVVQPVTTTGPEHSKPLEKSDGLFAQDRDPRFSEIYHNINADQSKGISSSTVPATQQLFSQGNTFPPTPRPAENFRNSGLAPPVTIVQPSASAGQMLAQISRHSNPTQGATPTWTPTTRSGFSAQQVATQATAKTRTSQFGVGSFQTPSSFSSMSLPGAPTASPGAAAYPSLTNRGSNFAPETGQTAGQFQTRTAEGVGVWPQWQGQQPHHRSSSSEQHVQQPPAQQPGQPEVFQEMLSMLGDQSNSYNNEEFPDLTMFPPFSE
From the text: Cell culture. An engineered Saccharomyces cerevisiae yeast strain, YCM3, was used for the present study. YCM3 was derived from the W303a yeast strain and is made available to investigators through the American Type Culture Collection (ATCC, strain MYA-3637). Human Ah receptor and ARNT genes were inserted onto chromosome III under the control of galactose promoter. YCM3 was transformed with a LacZ reporter plasmid that is expressed upon interaction with ligand activated AHRC (FIG. 24). This modification process was described in a previous study (Fox et al., 2008). The yeast cells were maintained in a glucose-containing medium (0.67% yeast nitrogen base without amino acids, 2% glucose, supplemented with 0.01% uracil, adenine, leucine, and histidine), and the bioassay was performed in a galactose-containing medium (2% galactose substituted for glucose in the medium described herein). Medium components were purchased from Sigma Aldrich Chemical Company.
(§1) Yeast bioassay. The YCM3 yeast cells were diluted into the galactose medium to a final A600 nm of 0.04, plated into 96-well plates at 200 μl/well, and treated with various concentrations of PAHs for 18 hr at 30° C. During this time, the human AhR and aryl hydrocarbon receptor nuclear translocator (ARNT) were expressed in the presence of galactose and activated by PAH ligands in the cell to form the aryl hydrocarbon receptor complex (AHRC). After 18 hrs of incubation, yeast cells were suspended by pipetting, a 25 μl aliquot from each well was transferred into another 96-well assay plate and mixed with 225 μl substrate solution (60 mM Na2HPO4, 40 mM NaH2PO4, 1 mM MgCl2, 10 mM KCl, 0.2% sarkosyl, 1 mM dithiothreitol, and 0.4 mg/ml ortho-nitrophenyl-β-galactoside; pH, 7.0). The assay plate was incubated for ˜5 min at 37° C. and then 100 μl of a 1M Na2CO3 solution was added to stop the reaction and enhance the yellow color. Cell densities were determined from the first 96-well plate by measuring A600 nm and the color intensities of LacZ reactions determined by A405 nm from the corresponding wells of the second plate.
A450 sample is the measurement of a ligand-treated well at 405 nm absorbance and A450 empty is the measurement of a well that contains only medium and no cells. A600 sample is the measurement of yeast cell density of a ligand-treated well at 600 nm absorbance and A600 empty is the measurement of a well that contains only medium and no cells. Cell volume is the amount of cell suspension added per well in ml (for example 0.025 ml) and reaction time is the time period of the colorimetric reaction (for example 5 min). The lacZ units were calculated as a percentage relative to the positive control (β-naphthaflavone signal set as 100%), and the dose response curves were fitted using SlideWrite program (version 7.01, Advanced Graphics Software, Inc.) using the 2 parameter curve: y=m+a0*x/(a1+x) (2) where m=LacZDMSO value from the assay plate, a0=maximum effect and a1=half maximum effective concentrations (EC50).
Relative EC50 and EC25 (rEC50 and rEC25) values were further introduced to compare potencies of various methylated phenanthrenes. rEC50 and rEC25 were defined as the concentrations of the total PAH at which the AhR was activated to 50% or 25% of the activation observed in the 100 μM phenanthrene control, respectively. The 100 μM concentration was chosen because it was the maximum that can be achieved in the assay. The rEC50 and rEC25 and the errors associated with these values were calculated from the fitted curves. Specifically, the LacZ value corresponding to 50% or 25% of this value was calculated according to the following equations: y(EC50)=[lacZ(100 uM Phen)+LacZ(1% DMSO)]/2 (3) y(EC25)=[lacZ(100 uM Phen)+3*LacZ(1% DMSO)]/4 (4)
These calculated y values and the a0 and a1 values from the curve fits were then used to solve for x in equation (2) above. These x values represent the mean of rEC50 or rEC25 from the fitted curve. […]

YCM3 yeast cells = assay: Toxicity to yeast cells in the yeast bioassay (inhibition of cell accumulation); format: cell-based, Saccharomyces cerevisiae; conditions: up to 100 μM
Procedure: as §1, with “The assay plate was incubated for ˜5 min at 37° C. and then 100 μl of a 1M Na2CO3 solution was added to stop the reaction and enhance the yellow color.” left out
During the induction process, YCM3 yeast cells were incubated with varying concentrations of phenanthrene and its methylated derivatives and their signaling activities were measured via a colorimetric substrate. […] Differences in cell growth at the end of the 18 hr incubation period were normalized by measuring each culture's absorbance at 600 nm.

[2] = crystal; cited from earlier work
marine fish = conditions: larvae of marine fish; cited from earlier work

Cc1ccc2ccc3ccc(C)cc3c2c1 [3,6-DMP, 3,6-dimethylphenanthrene]
rEC50 comparison (ANOVA post-test) [1]: significantly more potent that 4-MP | rEC25 comparison (ANOVA post-test) ([1]; 25% of the activity of 100 μM phenanthrene): significantly more potent than the 3-, 4- and 9-MPs | response achieved in the assay ([1]; dose-response curve up to 100 μM): up to 50%

Cc1cccc2c1ccc1ccccc12 [Clone 1-MP, 1-methylphenanthrene]
concentration at which maximal response was reached [1]: ~40 µM | EC50 [1]: 4 µM | Emax at 18 h ([1]; human, 1 μM BNF set as 100%, read-out: maximal response): 109%

Cc1ccc2c(ccc3ccccc32)c1 [Clone 2-MP, 2-methylphenanthrene]
EC50 [1]: 4.6 µM

Cc1ccc2ccc3ccccc3c2c1 [Clone 3-MP, 3-methylphenanthrene]
EC50 [1]: 5.8 µM

Cc1cc2ccccc2c2ccccc12 [Clone 9-MP, 9-methylphenanthrene]
toxicity to the yeast cells (YCM3 yeast cells): less toxic to the yeast cells

c1ccc2c(c1)ccc1ccccc12 [phenanthrene]
toxicity to the yeast cells (YCM3 yeast cells): less toxic to the yeast cells | solubility lower than biphenyl [2]: 1000 fold

Cc1cccc2c1ccc1cc(C(C)C)ccc12 [retene, 7-isopropyl-1-methylphenanthrene]
toxicity in vivo (marine fish): greater toxicity than unsubstituted phenanthrene
